From ChEMBL document CHEMBL1154434, “Novel keto-enamine Schiffs bases from 7-hydroxy-4-methyl-2-oxo-2H-benzo[h] chromene-8,10-dicarbaldehyde as potential antidyslipidemic and antioxidant agents” (2008) come the findings set out here.

Holding throughout (type): functional
In assay [1] the test system is Rattus norvegicus. Nature of the assay: Antidyslipidemic activity in WR-1339-induced hyperlipidemic Charles Foster rat assessed as reduction in plasma cholesterol level at 100 mg/kg, po after 18 hrs. The arrangement: scale not given: the % may be the effect or the level left.
A short description of assay [2]: Antioxidant activity assessed as inhibition of hydroxyl radical at 100 ug/mL.
Assay [3] concerns Rattus norvegicus. Nature of the assay: Antidyslipidemic activity in WR-1339-induced hyperlipidemic Charles Foster rat assessed as reduction in plasma triglyceride level at 100 mg/kg, po after 18 hrs. The arrangement: scale not given: the % may be the effect or the level left.
Assay [4] is described as follows: Antioxidant activity assessed as inhibition of microsomal lipid peroxidation at 100 ug/mL.
Assay [5] deals with Rattus norvegicus. Nature of the assay: Antidyslipidemic activity in WR-1339-induced hyperlipidemic Charles Foster rat assessed as reduction in plasma phospholipid level at 100 mg/kg, po after 18 hrs. Details: scale not given: the % may be the effect or the level left.
Assay [6] is described as follows: Antioxidant activity assessed as inhibition of superoxide at 100 ug/mL.
Assay [7] is described as follows: Antioxidant activity assessed as inhibition of superoxide at 20 ug/mL.

Broadly, the inhibition is how much of the control response was suppressed. As for `Cc1cc(=O)oc2c1ccc1c(O)c(C=O)cc(C=O)c12`, the Activity in assay [1] worked out at 23%; in assay [3] it was 21%; in assay [5] it was 25%. Also, the inhibition in assay [2] was found to be 52%; in assay [4], 27%; in assay [6], 72%.
For `Cc1c(C)c2c(c(C)c1O)CC[C@@](C)(CCC[C@H](C)CCC[C@H](C)CCCC(C)C)O2`, the values for the inhibition in assay [2] and in assay [4] were 48% and 45%, respectively.
Turning to `Cc1ccc(C)c(OCCCC(C)(C)C(=O)O)c1` [GEMFIBROZIL], the Activity turned out to be 33% in assay [1], 34% in assay [3] and 32% in assay [5].
Consider `CCCCN/C=C1/C=C(C=O)c2c(ccc3c(C)cc(=O)oc23)C1=O`, for which the inhibition in assay [4] turned out to be 37%.
As for `Cc1cc(=O)oc2c3c(ccc12)C(=O)/C(=C\NCCC1CNCCO1)C=C3C=O` (stereo not given), the Activity in assay [1] came to 20%; in assay [3], 25%; in assay [5], 21%. For the same compound, the inhibition in assay [4] amounted to 31%.
For `Oc1ncnc2[nH]ncc12`, the inhibition in assay [7] turned out to be 90%.
Turning to `CCCCCCCN/C=C1/C=C(C=O)c2c(ccc3c(C)cc(=O)oc23)C1=O`, the values for the Activity in assay [1], in assay [3] and in assay [5] were 24%, 22% and 20%, respectively. Besides, the inhibition in assay [2] came to 49%; in assay [4], 34%; in assay [6], 45%.
As for `OC[C@@H](O)[C@@H](O)[C@H](O)[C@H](O)CO`, the results for the inhibition in assay [2] and in assay [4] were 48% and 45%, respectively.
